The values below come from US20200347153A1, “METHODS FOR FORMING INCLUSION COMPLEXES WITH HYDROPHILIC BETA-CYCLODEXTRIN DERIVATIVES AND COMPOSITIONS THEREOF” (priority 2019, published 2020).

Series [1] can be described thus: Stability studies (shelf life, visible changes). The class given is physicochemical. On the procedure: The effects of HPBCD on the shelf life stability of each active agent is studied at pre-determined temperatures for 11 weeks. Real time stability is observed at −17° C., 5° C. and 25° C., and accelerated stability is observed at 40° C. For accelerated stability, one day at 40° C. is equivalent to one week, thus the data represents 77 weeks. […] The vials are then placed in a temperature-controlled oven or refrigerator/freezer. The compounds are checked daily and any visible changes are noted.

Series [2] is described as follows: Phase solubility studies. The settings on record: active with HPBCD; calculated using Eq. (1).
A short description of series [3]: Solubility in water (statements). The class given is physicochemical.
For series [4] the following is noted: cited from earlier work.

As to `COc1cc(CCC(=O)CC(=O)CCc2ccc(O)c(OC)c2)ccc1O` [Tetrahydrocurcumin], the “Stability of Actives at 5° C.” value in series [1] (1 week), in series [1] (2 week), in series [1] (3 week), in series [1] (4 week), in series [1] (5 week) and in series [1] (6 week) was 0 in each case. Also, the “Stability of Actives at 5° C.” value in series [1] (7 week), in series [1] (8 week), in series [1] (9 week), in series [1] (10 week) and in series [1] (11 week) was 0 in each case. For the same compound, the “Stability of Actives at 25° C.” value in series [1] (1 week), in series [1] (2 week), in series [1] (3 week), in series [1] (4 week), in series [1] (5 week) and in series [1] (6 week) was 0 in each case. The “Stability of Actives at 25° C.” value in series [1] (7 week), in series [1] (8 week), in series [1] (9 week), in series [1] (10 week) and in series [1] (11 week) was 0 throughout. Further, the “Stability of Actives at 40° C.” value in series [1] (1 week), in series [1] (2 week), in series [1] (3 week), in series [1] (4 week), in series [1] (5 week) and in series [1] (6 week) was 0 throughout. Further, the “Stability of Actives at 40° C.” value in series [1] (7 week), in series [1] (8 week), in series [1] (9 week), in series [1] (10 week) and in series [1] (11 week) was 0 in each case. Also, the “Stability of Actives at −17 C.” value in series [1] (1 week), in series [1] (2 weeks), in series [1] (3 weeks), in series [1] (4 weeks), in series [1] (5 week) and in series [1] (6 week) was 0 each time. The “Stability of Actives at −17 C.” value in series [1] (7 week), in series [1] (8 week), in series [1] (9 week), in series [1] (10 weeks) and in series [1] (11 weeks) was 0 each time.
On to `NC(=O)c1cccnc1` [Niacinamide], for which the “association constant (Kc) for complex formation” value in series [2] is 0.79856 M⁻¹. In addition, the solubility in water entry in series [3] is “strong water solubility”. The “Stability of Actives at 5° C.” value in series [1] (5° C., Week 1, visible changes) was found to be 0. Besides, the “Stability of Actives at 25° C.” value in series [1] (25° C., Week 1, visible changes) is listed as 0; in series [1] (25° C., Week 2, visible changes) it was 0; in series [1] (25° C., Week 3, visible changes) it was 0; in series [1] (25° C., Week 4, visible changes) it was 0; in series [1] (25° C., Week 5, visible changes), 0; in series [1] (25° C., Week 6, visible changes), 0. Besides, the “Stability of Actives at 25° C.” value in series [1] (25° C., Week 7, visible changes) is listed as 0; in series [1] (25° C., Week 8, visible changes) it was 0; in series [1] (25° C., Week 9, visible changes), 0; in series [1] (25° C., Week 10, visible changes), 0; in series [1] (25° C., Week 11, visible changes), 0. Further, the “Stability of Actives at 40° C.” value in series [1] (40° C. accelerated stability, Week 1, visible changes) was 0.
Turning to “1,3-diazacyclopenta-2,4-diene [imidazole]”, the “pKa of conjugate acid (imidazolium ion)” value in series [4] is “approximately 7.0”.
